Tested on: Human primary T cells
Test: IL-2 ELISA, human primary T cell, anti-CD3+CD28 stimulation
Type: cell-based
Conditions: IL-2 quantified by ELISA, human primary T cells stimulated with αCD3 and αCD28, 24 hours
Description: Human primary T cell isolation and culture: Human primary T cells were prepared as follows. Whole blood was obtained from a healthy volunteer, mixed 1:1 with PBS, layered on to Ficoll Hypaque (Amersham Pharmacia Biotech, Piscataway, N.J., Catalog #17-1440-03) in 2:1 blood/PBS:ficoll ratio and centrifuged for 30 minutes at 4° C. at 1750 rpm. The cells at the serum: ficoll interface were recovered and washed twice with 5 volumes of PBS. These freshly isolated human peripheral blood mononuclear cells were cultured in Yssel's medium containing 40 U/mL IL2 in a flask pre-coated with 1 μg/mL αCD3 and 5 μg/mL αCD28 (Anti-Human CD3, BD Pharmingen Catalog #555336, Anti-Human CD28, Beckman Coulter Catalog #IM1376). The cells were stimulated for 3-4 days, then transferred to a fresh flask and maintained in RPMI (RPMI-1640 with L-Glutamine; Mediatech, Inc., Herndon Va., cat. #10-040-CM) with 10% FBS and 40 U/mL IL-2. The primary T-cells were then washed twice with PBS to remove the IL-2.
Primary T cell stimulation and IL2 ELISA: Human primary T cells (100,000 cells per well) were pre-incubated with or without test compound in Yssel's medium for 1 hour at 37° C. Cells were then stimulated by transferring them to round-bottom 96-well plates pre-coated with 1 μg/ml αCD3 and 5 μg/ml αCD28. For counter assay, cells were instead stimulated by adding 8× stock solutions of PMA and ionomycin in Yssels (for final concentrations of 0.5 ng/ml PMA and 0.1 uM ionomycin, both from Calbiochem). Cells were incubated at 37° C. for 24 hours before 100 μL supernatants were harvested for quantification of IL-2 by ELISA using Human IL-2 Duoset ELISA Kit from R and D Systems, Cat. # DY202E.

| Compound | IC50 (T-cell) [nM] | IC50 [nM] |
| --- | --- | --- |
| CN1C(C)(C)CC(Nc2nc(Nc3ccc(F)c(-n4nn[nH]c4=O)c3)ncc2F)CC1(C)C [I-1, 5-fluoro-n2-{4-fluoro-[3-(4-h)-1,2,3,4-tetrazol-5-one-1-yl]}phenyl-n4-(1,2,2,6,6-pentamethylpiperidin-4-yl)-2,4-pyrimidinediamine] | 3000 to 25000 |  |
| CC1(C)CC(Nc2nc(Nc3ccc(F)c(-n4nn[nH]c4=O)c3)ncc2F)CC(C)(C)N1 [I-2, 5-fluoro-n2-{4-fluoro-[3-(4-h)-1,2,3,4-tetrazol-5-one-1-yl]}phenyl-n4-(2,2,6,6-tetramethylpiperidin-4-yl)-2,4-pyrimidinediamine] | > 25000 |  |
| CN1C(C)(C)CC(Nc2nc(Nc3ccc(F)c(-n4nnn(C)c4=O)c3)ncc2F)CC1(C)C [I-3, 5-fluoro-n2-{4-fluoro-[3-(4-methyl)-1,2,3,4-tetrazol-5-one-1-yl]}phenyl-n4-(1,2,2,6,6-pentamethylpiperidin-4-yl)-2,4-pyrimidinediamine] | < 500 |  |
| Cn1nnn(-c2cc(Nc3ncc(F)c(NC4CC(C)(C)NC(C)(C)C4)n3)ccc2F)c1=O [I-4] | < 500 |  |
| CC(C)n1nnn(-c2cc(Nc3ncc(F)c(NC4CC(C)(C)N(C)C(C)(C)C4)n3)ccc2F)c1=O [I-5, 5-fluoro-n2-{4-fluoro-[3-(4-isopropyl)-1,2,3,4-tetrazol-5-one-1-yl]}phenyl-n4-(1,2,2,6,6-pentamethylpiperidin-4-yl)-2,4-pyrimidinediamine] | 510 to 2990 |  |
| CC(C)n1nnn(-c2cc(Nc3ncc(F)c(NC4CC(C)(C)NC(C)(C)C4)n3)ccc2F)c1=O [I-6] | 510 to 2990 |  |
| CC1(C)CC(Nc2nc(Nc3ccc(F)c(-n4nnn(CCF)c4=O)c3)ncc2F)CC(C)(C)N1 [I-7, 5-fluoro-n2-{4-fluoro-3-[4-(2-fluoroethyl)-1,2,3,4-tetrazol-5-one-1-yl]}phenyl-n4-(2,2,6,6-tetramethylpiperidin-4-yl)-2,4-pyrimidinediamine] |  | 510 to 2990 |
| Cc1ccc(Nc2ncc(F)c(NC3CC(C)(C)N(C)C(C)(C)C3)n2)cc1-n1nnn(C)c1=O [I-8, 5-fluoro-n2-{4-methyl-[3-(4-methyl)-1,2,3,4-tetrazol-5-one-1-yl]}phenyl-n4-(1,2,2,6,6-pentamethylpiperidin-4-yl)-2,4-pyrimidinediamine] | < 500 |  |
| Cc1ccc(Nc2ncc(F)c(NC3CC(C)(C)NC(C)(C)C3)n2)cc1-n1nnn(C)c1=O [I-9, 5-fluoro-n2-{4-methyl-[3-(4-methyl)-1,2,3,4-tetrazol-5-one-1-yl]}phenyl-n4-(2,2,6,6-tetramethylpiperidin-4-yl)-2,4-pyrimidinediamine] | < 500 |  |
| CC(C)Oc1ccc(Nc2ncc(F)c(NC3CC(C)(C)N(C)C(C)(C)C3)n2)cc1-n1nnn(C)c1=O [I-10, 5-fluoro-n2-{4-isopropoxy-[3-(4-methyl)-1,2,3,4-tetrazol-5-one-1-yl]}phenyl-n4-(1,2,2,6,6-pentamethylpiperidin-4-yl)-2,4-pyrimidinediamine] |  | < 500 |
| CC(C)Oc1ccc(Nc2ncc(F)c(NC3CC(C)(C)NC(C)(C)C3)n2)cc1-n1nnn(C)c1=O [I-11, 5-fluoro-n2-{4-isopropoxy-[3-(4-methyl)-1,2,3,4-tetrazol-5-one-1-yl]}phenyl-n4-(2,2,6,6-tetramethylpiperidin-4-yl)-2,4-pyrimidinediamine] |  | < 500 |
| CN1C(C)(C)CC(Nc2nc(Nc3cccc(-n4nnn(C)c4=O)c3)ncc2F)CC1(C)C [I-12, 5-fluoro-n2-[3-(4-methyl)-1,2,3,4-tetrazol-5-one-1-yl]phenyl-n4-(1,2,2,6,6-pentamethylpiperidin-4-yl)-2,4-pyrimidinediamine] | 510 to 2990 |  |
| Cn1nnn(-c2cccc(Nc3ncc(F)c(NC4CC(C)(C)NC(C)(C)C4)n3)c2)c1=O [I-13] | 510 to 2990 |  |
| Cn1nnn(-c2cc(Nc3ncc(F)c(NC4CC(C)(C)NC(C)(C)C4)n3)c(F)cc2C2CC2)c1=O [I-14] | < 500 |  |

Source: patent US9732070B2, “Protein kinase C inhibitors and uses thereof” (Rigel Pharmaceuticals, Inc., priority 2009, dated 2017)
